In ChEMBL document CHEMBL1201862, “PubChem BioAssay data set” (2004):
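Values below derive from 48-hour exposures of cells grown in 96-well plates, with endpoints linearly interpolated between the two concentrations bracketing the appropriate inhibition level. GI50 = concentration required for 50% inhibition of growth.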 Calls of active or inactive are those of the source. Rule as the data show it: active = GI50 up to about 1.1 µM and inactive = higher.

What was measured:
Test in all cases: inhibition of tumour cell growth, NCI panel, 48 h
ACHN = test system: ACHN
PC-3 = test system: PC-3
A498 = test system: A498
HCC 2998 = test system: HCC 2998
OVCAR-4 = test system: OVCAR-4
HCT-116 = test system: HCT-116
IGROV-1 = test system: IGROV-1
CAKI-1 = test system: CAKI-1
OVCAR-5 = test system: OVCAR-5
OVCAR-3 = test system: OVCAR-3
SNB-19 = test system: SNB-19
SK-MEL-2 = test system: SK-MEL-2
NCI-H522 = test system: NCI-H522
KM12 = test system: KM12
NCI/ADR-RES = test system: NCI/ADR-RES
SNB-75 = test system: SNB-75
U-251 = test system: U-251
SN12C = test system: SN12C
RPMI-8226 = test system: RPMI-8226
MDA-MB-231 = test system: MDA-MB-231

SMILES | GI50 (ACHN) | GI50 (PC-3) | GI50 (A498) | GI50 (HCC 2998) | GI50 (OVCAR-4) | GI50 (HCT-116) | GI50 (IGROV-1) | GI50 (CAKI-1) | GI50 (OVCAR-5) | GI50 (OVCAR-3) | GI50 (SNB-19) | GI50 (SK-MEL-2) | GI50 (NCI-H522) | GI50 (KM12) | GI50 (NCI/ADR-RES) | GI50 (SNB-75) | GI50 (U-251) | GI50 (SN12C) | GI50 (RPMI-8226) | GI50 (MDA-MB-231)
C1CCCCC2(CCCCCCCCC3(CCC1)OCCO3)OCCO2 | > 100 µM (inactive) | > 100 µM (inactive) | > 100 µM (inactive) | > 100 µM (inactive) | > 100 µM (inactive) | > 100 µM (inactive) | > 100 µM (inactive) | > 100 µM (inactive) | > 100 µM (inactive) | > 100 µM (inactive) | > 100 µM (inactive) | > 100 µM (inactive) | > 100 µM (inactive) | > 100 µM (inactive) | > 100 µM (inactive) | > 100 µM (inactive) | > 100 µM (inactive) | > 100 µM (inactive) | – | –
CC(=O)NC1C(OCc2ccccc2)OC(CO)C(O)C1OCC(=O)NC(C)C(=O)NC(CCC(=O)OCCNC(=O)c1cccc2cc3ccccc3nc12)C(N)=O (stereo not given) | 12.3 µM (inactive) | 27.4 µM (inactive) | – | 18.4 µM (inactive) | 20.8 µM (inactive) | 10.4 µM (inactive) | 17.8 µM (inactive) | 14.8 µM (inactive) | 22.1 µM (inactive) | 20.5 µM (inactive) | 31.4 µM (inactive) | 26.4 µM (inactive) | 16.8 µM (inactive) | 21.9 µM (inactive) | 21.6 µM (inactive) | 20.5 µM (inactive) | 18.4 µM (inactive) | 22.3 µM (inactive) | 1.33 µM (inactive) | –
COc1c(C)c(C/C=C(\C)CCCCO)c(OC)c(OC)c1OC | > 100 µM (inactive) | > 100 µM (inactive) | – | – | > 100 µM (inactive) | > 100 µM (inactive) | 45.2 µM (inactive) | 0.112 µM (active) | > 100 µM (inactive) | > 100 µM (inactive) | > 100 µM (inactive) | > 100 µM (inactive) | > 100 µM (inactive) | 19.1 µM (inactive) | > 100 µM (inactive) | > 100 µM (inactive) | > 100 µM (inactive) | 28.7 µM (inactive) | 10.3 µM (inactive) | > 100 µM (inactive)
N[C@@H](Cc1ccc2oc3cc(=O)c4ccccc4c-3nc2c1)C(=O)O | 48.2 µM (inactive) | – | > 100 µM (inactive) | – | > 100 µM (inactive) | > 100 µM (inactive) | > 100 µM (inactive) | > 100 µM (inactive) | > 100 µM (inactive) | 27.2 µM (inactive) | 26.4 µM (inactive) | – | 39.7 µM (inactive) | > 100 µM (inactive) | > 100 µM (inactive) | 15 µM (inactive) | 36.3 µM (inactive) | 55.5 µM (inactive) | > 100 µM (inactive) | > 100 µM (inactive)
Fc1ccc(C2(CCCN3CCc4[nH]c5cc(F)ccc5c4C3)OCCO2)cc1 | 11.4 µM (inactive) | – | 14.3 µM (inactive) | 2.13 µM (inactive) | 13.3 µM (inactive) | 11.5 µM (inactive) | 20.1 µM (inactive) | – | 2.89 µM (inactive) | – | 11.1 µM (inactive) | – | – | 13.3 µM (inactive) | 20.7 µM (inactive) | 12.1 µM (inactive) | 11.9 µM (inactive) | 16.7 µM (inactive) | 10.7 µM (inactive) | 18.7 µM (inactive)
Cc1cccc(Br)[n+]1[O-] | > 100 µM (inactive) | > 100 µM (inactive) | – | – | > 100 µM (inactive) | > 100 µM (inactive) | > 100 µM (inactive) | > 100 µM (inactive) | > 100 µM (inactive) | > 100 µM (inactive) | > 100 µM (inactive) | > 100 µM (inactive) | > 100 µM (inactive) | > 100 µM (inactive) | > 100 µM (inactive) | > 100 µM (inactive) | > 100 µM (inactive) | 97.1 µM (inactive) | > 100 µM (inactive) | 91.6 µM (inactive)
C/C(=N\NC(=S)N1CC2CCC(CC2)C1)c1nccs1 | 0.3 µM (active) | 0.228 µM (active) | 1.8 µM (inactive) | 0.268 µM (active) | 0.261 µM (active) | < 0.0187 µM (active) | 0.158 µM (active) | 0.634 µM (active) | 0.143 µM (active) | 0.0415 µM (active) | 0.741 µM (active) | 0.679 µM (active) | 0.0471 µM (active) | 0.133 µM (active) | < 0.0295 µM (active) | 3.33 µM (inactive) | 0.185 µM (active) | 0.853 µM (active) | 0.0347 µM (active) | –
COc1cc(C2=C(c3cc(OC)c4ccccc4c3OC)C(=O)c3ccccc3C2=O)c(OC)c2ccccc12 | > 100 µM (inactive) | > 100 µM (inactive) | > 100 µM (inactive) | – | 1.14 µM (inactive) | > 100 µM (inactive) | > 100 µM (inactive) | > 100 µM (inactive) | 75.9 µM (inactive) | > 100 µM (inactive) | > 100 µM (inactive) | > 100 µM (inactive) | > 100 µM (inactive) | > 100 µM (inactive) | > 100 µM (inactive) | > 100 µM (inactive) | > 100 µM (inactive) | > 100 µM (inactive) | – | –
